Earlier results on one substance are cited in patent US8097267B2, “Moisture resistant container systems for rapidly bioavailable dosage forms” (APR Applied Pharma Research s.a., priority 2006, dated 2012).

For this series the following is noted: acidic environment.

With “[(2,6-dichloro-anilino)-2-phenyl]-2-acetic acid [diclofenac potassium]”, the precipitation entry was “tendency to precipitate in an acidic environment”.
